7 molecules from US9790252B2, “2-fluorinated riboses and arabinoses and methods of use and synthesis” (CORNELL UNIVERSITY, priority 2009, dated 2017) can be followed below.

In series [1] the target is T1, SirT2 (Homo sapiens, UniProt Q8IXJ6).
T1 sequence (Q8IXJ6 1-389): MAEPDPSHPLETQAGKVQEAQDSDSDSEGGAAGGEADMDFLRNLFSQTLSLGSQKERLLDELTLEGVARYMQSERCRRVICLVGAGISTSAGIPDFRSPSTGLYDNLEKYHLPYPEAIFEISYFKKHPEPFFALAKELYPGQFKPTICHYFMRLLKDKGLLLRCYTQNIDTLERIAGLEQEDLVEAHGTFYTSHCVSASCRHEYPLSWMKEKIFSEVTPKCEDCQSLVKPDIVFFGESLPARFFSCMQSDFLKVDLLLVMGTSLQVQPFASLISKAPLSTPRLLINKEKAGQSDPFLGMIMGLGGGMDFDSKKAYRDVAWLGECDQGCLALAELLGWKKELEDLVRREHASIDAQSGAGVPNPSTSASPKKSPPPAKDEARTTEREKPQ
Description: SirT2 activity assay (HPLC of 2′- and 3′-AADPR). The class given is biochemical. Conditions: 800 μM NAD+, 500 μM H3 peptide, pH 7.5, 45 mins at 37° C. Here is the method: Reactions containing 800 μM NAD^+, 500 μM H3 peptide, and 100 mM phosphate buffer at pH 7.5, with varying concentrations of 2′-deoxy-2′-fluoro-nucleosides or nucleotides were initiated by addition of SirT2 enzyme to a concentration of 16.6 μM. Reactions were incubated for 45 mins at 37° C. and quenched by addition of trifluoroacetic acid to pH 2. After centrifugation to remove precipitates, reactions were injected on HPLC for activity analysis. Production of 2′- and 3′-AADPR were analyzed at 260 nm.
SirT2 Activity Assay: Reactions containing 800 μM NAD^+, 500 μM H3 peptide, and 100 mM phosphate buffer at pH 7.5, with varying concentrations of 2′-deoxy-2′-chloro-nucleosides were initiated by addition of SirT2 enzyme to a concentration of 16.6 μM. Reactions were incubated for 45 mins at 37° C. and quenched by addition of trifluoroacetic acid to pH 2. After centrifugation to remove precipitates, reactions were injected on HPLC for activity analysis. Production of 2′- and 3′-AADPR were analyzed at 260 nm.

In series [2] the target is T2, SirT3 (Homo sapiens, UniProt Q9NTG7).
T2 sequence (Q9NTG7 1-399): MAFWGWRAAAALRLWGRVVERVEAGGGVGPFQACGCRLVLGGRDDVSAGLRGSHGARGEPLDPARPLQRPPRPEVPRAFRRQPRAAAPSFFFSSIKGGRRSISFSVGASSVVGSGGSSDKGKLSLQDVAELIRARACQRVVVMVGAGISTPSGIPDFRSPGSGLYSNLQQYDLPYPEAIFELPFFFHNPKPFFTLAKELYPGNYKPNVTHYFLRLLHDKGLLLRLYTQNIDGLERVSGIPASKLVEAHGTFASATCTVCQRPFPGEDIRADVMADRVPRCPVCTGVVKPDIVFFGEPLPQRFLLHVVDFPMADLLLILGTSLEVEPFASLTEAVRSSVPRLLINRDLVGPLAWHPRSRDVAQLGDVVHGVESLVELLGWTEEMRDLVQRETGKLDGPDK
Description: SirT3 activity assay (HPLC of 2′- and 3′-AADPR). The class given is biochemical. Conditions: 800 μM NAD+, 500 μM H3 peptide, pH 7.5, 2 hours at 37° C. Here is the method: Reactions containing 800 μM NAD^+, 500 μM H3 peptide, and 100 mM phosphate buffer at pH 7.5, with varying concentrations of 2′-deoxy-2′-fluoro-nucleosides or nucleotides were initiated by addition of SirT3 enzyme to a concentration of 13.9 μM. Reactions were incubated for 2 hours at 37° C. and quenched by addition of trifluoroacetic acid to pH 2. After centrifugation to remove precipitates, reactions were injected on HPLC for activity analysis. Production of 2′- and 3′-AADPR were analyzed at 260 nm.
SirT3 Activity Assay: Reactions containing 800 μM NAD^+, 500 μM H3 peptide, and 100 mM phosphate buffer at pH 7.5, with varying concentrations of 2′-deoxy-2′-chloro-nucleosides were initiated by addition of SirT3 enzyme to a concentration of 13.9 μM. Reactions were incubated for 2 hours at 37° C. and quenched by addition of trifluoroacetic acid to pH 2. After centrifugation to remove precipitates, reactions were injected on HPLC for activity analysis. Production of 2′- and 3′-AADPR were analyzed at 260 nm.

In series [3] the test system is Neuro2A cells. Nature of the series: Toxicity to Neuro2A cells (MTT). The class given is cell-based. The following applies: for 100 μM absorbance / 100 μM relative viability / 500 μM absorbance / 500 μM relative viability: 12 hours; for 100 μM absorbance / 500 μM absorbance: 570 nm. Here is the method: 6. Neuro2A cells were seeded in 96-well plate at a density of 25,000 cells/well the day before the experiment starts;
7. After the cells reach 50˜60% confluency, media was taken out, and 100 μL of fresh media was added to each well;
8. […]
9. After 12 hours' incubation at 37° C., the media was taken out, 100 μL of fresh media was added to each well along with 20 μL of 5 mg/mL of MTT solution (in PBS);
10. After 1.5 hours' incubation at 37° C., media was taken out and 100 μL of DMSO was added to each well, the plate was mixed on shaker for 5 mins;
Absorbance was measured at 570 nm.
Assay for Determining Toxicity to HEK293 and Neuro2A Cells • 1. HEK293 and Neuro2A cells were seeded in 96-well plate at a density of 25,000 cells/well the day before the experiment starts; • 2. After the cells reach 50˜60% confluency, media was taken out, and 100 μL of fresh media was added to each well; • 3. […] After 12 hours' incubation at 37° C., the media was taken out, 100 μL of fresh media was added to each well along with 20 μL of 5 mg/mL of MTT solution (in PBS); • 5. After 2 hours' incubation at 37° C., media was taken out and 100 μL of DMSO was added to each well, the plate was mixed on shaker for 5 mins; • 6. Absorbance was measured at 570 nm.

Where [4] appears, read: Mus musculus, N2a, 2′-deoxy-2′-fluoro-nucleosides and nucleotides.
Where [5] appears, read: MTT 2 hours, chloro-nucleosides.
Setting [6] is: control = 1, chloro-nucleosides.

Each structure is given as a SMILES string.

`NC(=O)c1ccc[n+]([C@@H]2O[C@H](CO)C(O)C2F)c1` (stereo partly shown) [ara-F-NR, 1-(2′-deoxy-2′-fluoro-arabinofuranosyl)-nicotinamide] came in with a Ki in series [1] of 2300 µM. Moreover, the affinity in series [2], expressed as Ki, was 623 µM. In series [3] (MTT 1.5 hours), the “100 μM absorbance” value was 2.0227 and the “500 μM absorbance” value is recorded as 2.0666. In series [3] (control = 1), the “100 μM relative viability” value came out at 0.831 and the “500 μM relative viability” value was found to be 0.849. For the same molecule, the EC50 in series [3] (setting [4]) was 3840 µM.

In series [1], `NC(=O)c1ccc[n+]([C@@H]2O[C@H](COP(=O)([O-])O)C(O)C2(F)F)c1` (stereo partly shown) [gem-diF-NMN, 2′-deoxy-2′,2′-difluoro-ribo-nicotinamide mononucleotide] showed a Ki of 162 µM. The molecule further gave a Ki in series [2] of 128 µM. In addition, in series [3] (MTT 1.5 hours), the “100 μM absorbance” value is on record as 1.0774 and the “500 μM absorbance” value is listed as 0.0217. In series [3] (control = 1), the “100 μM relative viability” value is reported as 0.443 and the “500 μM relative viability” value was 0.009. Further, it took 64 µM to reach a half-maximal effect in series [3] (setting [4]) (EC50).

For `NC(=O)c1ccc[n+]([C@@H]2O[C@H](CO)[C@@H](O)C2(F)F)c1` [gem-diF-NR, 1-(2′-deoxy-2′,2′-difluoro-ribofuranosyl)-nicotinamide], in series [1], the “SirT2 Ki” value is “Ki = high mM”. For the same molecule, the “SirT3 Ki” value in series [2] is on record as “Ki = high mM”. Also, in series [3] (MTT 1.5 hours), the “100 μM absorbance” value turned out to be 0.8234 and the “500 μM absorbance” value came out at 0.5374. Also, in series [3] (control = 1), the “100 μM relative viability” value was 0.338 and the “500 μM relative viability” value worked out at 0.221. In series [3] (setting [4]), this molecule returned a concentration for a half-maximal effect (EC50) of 61 µM.

Regarding `NC(=O)c1ccc[n+]([C@@H]2O[C@H](COP(=O)([O-])O)C(O)C2F)c1` (stereo partly shown) [ribo-F-NMN, 2′-deoxy-2′-fluoro-ribo-nicotinamide mononucleotide], in series [1], affinity was put at a Ki of 450 µM. In series [2], this molecule gave a Ki of 106 µM. Also, in series [3] (MTT 1.5 hours), the “100 μM absorbance” value was 2.2023 and the “500 μM absorbance” value is listed as 1.7872. For the same molecule, in series [3] (control = 1), the “100 μM relative viability” value was 0.905 and the “500 μM relative viability” value was found to be 0.735. This molecule also yielded an EC50 in series [3] (2′-deoxy-2′-fluoro-nucleosides and nucleotides) of 1400 µM.

`NC(=O)c1ccc[n+]([C@@H]2O[C@H](CO)C(O)[C@@H]2F)c1` (stereo partly drawn) [ribo-F-NR, 1-(2-deoxy-2-fluoro-D-ribofuranosyl)-nicotinamide] yielded an inhibitory constant (Ki) in series [1] of 1730 µM. This molecule also yielded a Ki in series [2] of 250 µM. In addition, in series [3] (MTT 1.5 hours), the “100 μM absorbance” value is recorded as 1.8769 and the “500 μM absorbance” value was found to be 0.8391. Further, in series [3] (control = 1), the “100 μM relative viability” value worked out at 0.771 and the “500 μM relative viability” value was determined as 0.345. This molecule displayed an EC50 in series [3] (setting [4]) of 281 µM.

The molecule `NC(=O)c1ccc[n+]([C@@H]2O[C@H](CO)C(O)C2Cl)c1` (stereo partly drawn) [β-ara-Cl-NR, 1-(2′-deoxy-2′-chloro-arabinofuranosyl)-nicotinamide] showed a Ki in series [1] of 3200 µM. Also, the inhibitory constant (Ki) in series [2] was found to be 546 µM. Moreover, in series [3] (setting [5]), the “100 μM absorbance” value is 0 and the “500 μM absorbance” value is given as 0. In series [3] (setting [6]), the “100 μM relative viability” value worked out at 0 and the “500 μM relative viability” value is 0. Moreover, the midpoint of the response in series [3] (Mus musculus, N2a, 2′-deoxy-2′-chloro-nucleosides), the EC50, lay at 9 µM.

The molecule `NC(=O)c1ccc[n+]([C@@H]2O[C@H](CO)C(O)C2(Cl)Cl)c1` (stereo partly drawn) [β-gem-diCl-NR, 1-(2′-deoxy-2′,2′-dichloro-ribofuranosyl)-nicotinamide] gave a Ki in series [1] of 403 µM. The molecule also displayed a Ki in series [2] of 123 µM. In addition, in series [3] (setting [5]), the “100 μM absorbance” value is given as 2.615 and the “500 μM absorbance” value is recorded as 2.63. In addition, in series [3] (setting [6]), the “100 μM relative viability” value was found to be 1.106 and the “500 μM relative viability” value was 1.112. Besides, in series [3] (at 500 μM), the “toxicity to Neuro2A (in words)” value is “not toxic at 500 μM”.
